Test results published in patent publication US20180141965A1, “AUTOTAXIN INHIBITORS AND USES THEREOF” (NATIONAL AND KAPODISTRIAN UNIVERSITY OF ATHENS, priority 2015, published 2018).
Read-outs that look alike come from different tables or passages of the source.

Target: T1, recombinant ATX (mouse ATX-β) (Mus musculus, UniProt Q9R1E6)
T1 construct: purchased Sino Biological
Assay: Inhibition of ATX, Amplex Red PLD assay kit
Type: biochemical
Conditions: 2 nM recombinant ATX, mean of two independent experiments
Procedure: The in vitro activity of the synthetic inhibitors was studied using the Amplex™ Red PLD assay kit (Molecular Probes, Interchim, Montlucon, France). Inhibitors were dissolved in DMSO (stock solution 3 mM) and appropriate dilutions were made in DMSO. […] The IC50 values were determined using the mean values obtained from two independent experiments. The IC50 values were determined graphically using the sigmoid dose-response fitting method (PrismH software) by the equation f=y0+a/(1+exp(−(x−x0)/b)) given by SigmaPlot 11.0.

[1] = hydroxamates, substrate 50 μM LPC 16:0, read-out: IC50 (μM) 16:0 LPC
[2] = thioamides/phosphonates/phosphinates, substrate 50 μM LPC 16:0, read-out: IC50 (μM) 16:0 LPC
[3] = thioamides/phosphonates/phosphinates, substrate 50 μM LPC 18:0, read-out: IC50 (μM) 18:0 LPC
[4] = hydroxamates, substrate 50 μM LPC 18:0, read-out: IC50 (μM) 18:0 LPC
[5] = thioamides/phosphonates/phosphinates, substrate 50 μM LPC 18:1, read-out: IC50 (μM) 18:1 LPC

Work on `O=C(Cc1ccc(NC(=O)CCCCC(=O)Nc2ccccc2)cc1)NO` [GK285] yielded an IC50 [1] of 1.2 µM.
Compound `CCCCCCCCCCCCCC(=S)NCCCC[PH](=O)O` [GK312] has an IC50 [2] of 3 µM and an IC50 [3] of 0.7 µM.
In the case of `CCCCCCCCCCCCCC(=S)NCCCC[PH](=O)O` [GK325], the IC50 [2] is reported as 0.5 µM and the IC50 [3] is reported as 1 µM.
For `CCCCCCCCCCCCCC(=O)Nc1ccc(CC[PH](=O)O)cc1` [GK327], the IC50 [2] was 0.4 µM and the IC50 [3] was 4 µM.
For `CCCCCCCCCCCCCC(=O)Nc1ccc(CC(=O)NO)cc1` [GK332], the IC50 [1] was 1 µM and the IC50 [4] was 0.2 µM.
In the case of `O=C(Cc1ccc(NC(=O)CCCCCCc2ccccc2)cc1)NO` [GK333], the IC50 [1] is reported as 0.7 µM and the IC50 [4] is reported as 2 µM.
Work on `Nc1ccccc1NC(=O)Cc1ccc(NC(=O)CCCCC(=O)Nc2ccccc2)cc1` [GK335] yielded an IC50 [1] of 0.6 µM.
`COC(=O)[C@@H](CCC(=O)NO)NC(=O)CCCCC(=O)Nc1ccccc1` [GK337] was tested, and the IC50 [1] was 0.4 µM and the IC50 [4] was 5 µM.
In the case of `O=C(Cc1ccc(NC(=O)CCCCNC(=O)c2ccccc2)cc1)NO` [GK340], the IC50 [1] is reported as 1 µM and the IC50 [4] is reported as 0.2 µM.
For `CCCCOc1ccc(CCCCC(=O)Nc2ccc(CC(=O)NO)cc2)cc1` [GK341], the IC50 [1] was 4 µM.
`CCCCCCCCc1ccc(OCC(=O)Nc2ccc(CC(=O)NO)cc2)cc1` [GK344] showed an IC50 [1] of 1 µM and an IC50 [4] of 0.3 µM.
`CCCCCCCCc1ccc(CCC(=O)Nc2ccc(CC(=O)NO)cc2)cc1` [GK345] gave an IC50 [1] of 5 µM.
Work on `O=C(Cc1ccc(NC(=O)CCCCCCC(=O)Nc2ccccc2)cc1)NO` [GK346] yielded an IC50 [1] of 2 µM.
With `CCCCCCCCCCCCCC(=S)NCCCCC(=S)NCC` [GK377] the IC50 [2] was 0.198 µM and the IC50 [5] was 0.098 µM.
`CCCCCCCCCCCCCC(=S)NCCCCP(=O)(O)OCC` [GK378] was tested, and the IC50 [2] was 0.12 µM and the IC50 [5] was 0.05 µM.
Compound `COc1ccc(C(=O)NCCCCC(=O)Nc2ccc(CC(=O)NO)cc2)cc1` [GK381] has an IC50 [1] of 1 µM.
`COC(=O)[C@@H](CCC(=O)NO)NC(=O)CCCCC(=O)Nc1ccc(OC)cc1` [GK382] was tested, and the IC50 [1] was 4 µM.
Compound `COC(=O)[C@@H](CCCC(=O)NO)NC(=O)CCCCC(=O)Nc1ccccc1` [GK400] has an IC50 [1] of 0.05 µM.
Compound `CCCC[C@@H](CCCC(=O)NO)NC(=O)CCCCC(=O)Nc1ccccc1` [GK442] has an IC50 [1] of 0.06 µM.
For `CCCCCCCCCCCCNC(=S)NCCCCC(=S)NCC` [GK446], the IC50 [2] was 0.06 µM.
With `CCCC[C@@H](CCCC(=O)NO)NC(=S)NCCCC(=O)Nc1ccccc1` [GK471] the IC50 [1] was 0.8 µM.
